Measured values published in paper PMC4192606, “Agrobacterium Uses a Unique Ligand-Binding Mode for Trapping Opines and Acquiring A Competitive Advantage in the Niche Construction on Plant Host” (PLoS Pathogens, 2014).
Several values for one entry are separate records, joined by “and”; a condition that tells them apart may be missing. Identical values can stand only once.

How the values were obtained:
NocT [1] = molecular target: T1, NocT (Agrobacterium fabrum, UniProt P35120); experiment: KD measurement by intrinsic protein fluorescence titration, wild-type NocT; format: binding, Agrobacterium tumefaciens C58; conditions: 25°C, 25 mM Tris-HCl pH 8.0, 150 mM NaCl, 5 µM protein, triplicates; for Kd: read-out: KD (fluorescence titration), NocT wt
T1 construct: The X-ray structures of the mature free-liganded NocT; made in house; host or cells: E. coli Rosetta pLysS
Description: (§1) Ligand-NocT interaction was monitored by autofluorescence by exciting the protein at a wavelength of 295 nm and monitoring the quenching of fluorescence emission of tryptophan residues at 340 nm. All experiments were performed at 25°C in 25 mM Tris-HCl pH 8.0 and 150 mM NaCl with a fixed amount of proteins (5 µM) and increasing concentrations of ligand using a SpectraMax M5 microplate reader (Molecular Devices). […] Fluorescence measurements were done in triplicates. The data were analysed using Origin 7 software and fitted to the equation f = ΔFluorescencemax * abs(x)/(KD+abs(x)).

NocT [2] = molecular target: T1, NocT; experiment: KD measurement by isothermal titration calorimetry (ITC), wild-type NocT; format: binding, Agrobacterium tumefaciens C58
Description: ITC experiments were performed with an ITC200 isothermal titration calorimeter from MicroCal Llc (Northampton, MA). The experiments were carried out at 20°C. Protein concentration in the microcalorimeter cell (0.2 ml) varied from 100 to 150 µM. Nineteen injections of 2 µl of the ligand solution concentration from 1.5 to 1.6 mM were performed at intervals of 180 s while stirring at 1000 rpm. The experimental data were fitted to theoretical titration curves with software supplied by MicroCal (ORIGIN). This software uses the relationship between the heat generated by each injection and ΔH (enthalpy change in Kcal.mol^−1), Ka (the association binding constant in M^−1), n (the number of binding sites), total protein concentration and free and total ligand concentrations.

[3] = test system: A. tumefaciens C58 ocd mutant; experiment: Growth assay on opine as sole carbon and nitrogen source, ocd mutant; format: cell-based, Agrobacterium tumefaciens C58; conditions: opine as sole source of carbon and nitrogen at 3 mM, AB medium, OD600 after 24 hours
From the text: (§2) The A. tumefaciens C58 derivatives carrying pTi-accR::Gm and pTi::Gm (used as C58-control in plant assay) in which the genes accR (atu6138) and atu6147 were disrupted by inserting a gentamicin resistance cassette were already constructed. The A. tumefaciens C58 derivatives harbouring the Ti-plasmid pTi-nos::Km, pTi-ocd::Gm, pTi-nocT::Gm were obtained by insertion of a gentamicin (Gm) or kanamycin (Km) resistance cassette into the genes nos ( = atu6015), ocd ( = atu6016), and nocT ( = atu6027) as described previously.
(§3) A. tumefaciens was cultivated at 30°C in Agrobacterium broth (AB) minimal medium supplemented with ammonium chloride (1 g/L) and mannitol (2 g/L) except when an alternative source of carbon and nitrogen is indicated, or in Luria-Bertani modified medium (LBm; NaCl 5 g/L). In growth assay nopaline and pyronopaline were added as a sole carbon and nitrogen source at 3 mM (ca 1 g/L). The antibiotics gentamycin and kanamycin were added at 25 µg/mL and 50 µg/mL, respectively.

[4] = test system: A. tumefaciens C58 nocT mutant; experiment: Growth assay on opine as sole carbon and nitrogen source, nocT mutant; format: cell-based, Agrobacterium tumefaciens C58; conditions: opine as sole source of carbon and nitrogen at 3 mM, AB medium, OD600 after 24 hours
From the text: as §2, §3

NocT-M117N = molecular target: T2, NocT-M117N (Agrobacterium fabrum, UniProt P35120, M117N); experiment: KD measurement by fluorescence titration, NocT-M117N mutant; format: binding, Agrobacterium tumefaciens C58
T2 construct: The X-ray structures of the mature free-liganded NocT; made in house; host or cells: E. coli Rosetta pLysS
From the text: (§4) Using 5′-[…] and 5′-[…] primers, nocT gene of A. tumefaciens C58 was amplified and then cloned into pET-9aSN1 expression vector (a gift from S. Chéruel, IBBMC, University Paris Sud, Orsay, France). The pET-9aSN1-nocT was used as template to generate directed mutations with QuikChange II XL directed mutagenesis kit (Stratagene). For mutations Met117 to Ser (M117S) and Asn (M117N), the synthetic forward primers 5′–[…] and 5′-[…] and their reverse complemented primers were designed. The nucleotide sequence of all alleles was confirmed by DNA-sequence analysis (GATC, France).
as §1

NocT-M117S = molecular target: T3, NocT-M117S (Agrobacterium fabrum, UniProt P35120, M117S); experiment: KD measurement by fluorescence titration, NocT-M117S mutant; format: binding, Agrobacterium tumefaciens C58
T3 construct: The X-ray structures of the mature free-liganded NocT; made in house; host or cells: E. coli Rosetta pLysS
From the text: as §4, §1

[5] = 20°C, protein 100 to 150 µM, triplicates

T1 sequence (P35120 26-283): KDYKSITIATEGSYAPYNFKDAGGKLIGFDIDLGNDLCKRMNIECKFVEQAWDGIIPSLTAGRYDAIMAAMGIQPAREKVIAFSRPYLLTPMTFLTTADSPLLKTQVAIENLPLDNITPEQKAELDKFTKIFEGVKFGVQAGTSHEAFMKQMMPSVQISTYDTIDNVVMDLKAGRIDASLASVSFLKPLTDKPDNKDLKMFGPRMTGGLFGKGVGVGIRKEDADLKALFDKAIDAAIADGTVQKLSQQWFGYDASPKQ
T3 sequence (P35120 26-283 M117S): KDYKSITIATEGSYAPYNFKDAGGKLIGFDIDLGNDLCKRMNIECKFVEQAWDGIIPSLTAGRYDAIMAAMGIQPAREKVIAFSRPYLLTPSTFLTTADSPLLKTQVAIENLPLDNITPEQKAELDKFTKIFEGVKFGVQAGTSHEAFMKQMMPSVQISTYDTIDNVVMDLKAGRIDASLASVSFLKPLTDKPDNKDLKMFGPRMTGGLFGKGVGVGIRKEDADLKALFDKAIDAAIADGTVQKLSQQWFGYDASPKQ
T2 sequence (P35120 26-283 M117N): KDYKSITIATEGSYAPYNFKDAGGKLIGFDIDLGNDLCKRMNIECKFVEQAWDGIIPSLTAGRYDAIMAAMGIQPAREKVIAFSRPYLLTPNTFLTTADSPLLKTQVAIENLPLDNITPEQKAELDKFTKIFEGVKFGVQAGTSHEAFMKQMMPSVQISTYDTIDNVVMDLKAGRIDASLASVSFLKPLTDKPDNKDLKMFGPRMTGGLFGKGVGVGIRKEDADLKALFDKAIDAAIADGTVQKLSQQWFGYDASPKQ

SMILES	KD (ITC), NocT wt (NocT [2]; [5])	growth of ocd mutant [3]	Kd (NocT [1])	growth of nocT mutant [4]	also measured
N=C(N)NCCC[C@H](N)C(=O)O [arginine, reference compound]	no interaction	–	–	–	KD (fluorescence titration), NocT wt (NocT [1]): no interaction
N[C@@H](Cc1c[nH]cn1)C(=O)O [histidine, reference compound]	no interaction	–	–	–	–
N=C(N)NCCCC(NC(CCC(=O)O)C(=O)O)C(=O)O (centres unmarked) [nopaline]	–	strongly impaired	3700 nM	could not grow	–
NCCC[C@H](N)C(=O)O [ornithine, reference compound]	no interaction	–	–	–	–
N=C(N)NCCCC(C(=O)O)N1C(=O)CCC1C(=O)O (centres unmarked) [pyronopaline]	–	strongly impaired	570 nM and 600 nM	could not grow	TΔS of binding (ITC) (NocT [2]; 20°C): 12.6 kcal/mol; Kd (NocT [2]; 20°C, protein 100 to 150 µM, triplicates, read-out: KD (ITC), NocT wt): 580 ± 50 nM; enthalpy of binding (ITC) (NocT [2]; positive enthalpy): 2.1 kcal/mol; Kd (NocT-M117N): 39900 ± 7000 nM; KD fold higher than that of the WT protein, NocT-M117N (NocT-M117N; mutant vs WT NocT): 76 fold; Kd (NocT-M117S): 37800 ± 9000 nM; KD fold higher than that of the WT protein, NocT-M117S (NocT-M117S; mutant vs WT NocT): 76 fold
